Reference: ChEMBL document CHEMBL4354782, “Quinolone antibiotics” (Medchemcomm, 2019)
Values after ≈ are worked out from the molar mass of the structure shown.

Assays:
[1] = Cmax in human at 0.4 g, po; assay type: ADME; design: dose 0.4 g, route oral; details: in vivo
Streptococcus pyogenes = test: Antibacterial activity against Streptococcus pyogenes by agar diffusion method; assay type: functional
Staphylococcus aureus = test: Antibacterial activity against Staphylococcus aureus by agar diffusion method; assay type: functional
Pseudomonas aeruginosa = test: Antibacterial activity against Pseudomonas aeruginosa by agar diffusion method; assay type: functional
Escherichia coli = test: Antibacterial activity against Escherichia coli by agar diffusion method; assay type: functional
Enterococcus = test: Antibacterial activity against Enterococcus by agar diffusion method; assay type: functional
[2] = Protein binding in human at 0.4 g, po; assay type: ADME; details: in vivo, read-out: PB (converted)
[3] = AUC in human at 0.4 g, po; assay type: ADME; details: in vivo
[4] = Half life in human at 0.4 g, po; assay type: ADME; details: in vivo
Streptococcus pneumoniae = test: Antibacterial activity against Streptococcus pneumoniae by agar diffusion method; assay type: functional
Klebsiella = test: Antibacterial activity against Klebsiella by agar diffusion method; assay type: functional
Haemophilus influenzae = test: Antibacterial activity against Haemophilus influenzae with horse blood by agar diffusion method; assay type: functional
[5] = Toxicity in human assessed as CNS effect by measuring dizziness
[6] = Toxicity in human assessed as hepatic eosinophilia effect
[7] = AUC in human at 0.3 g, po; assay type: ADME; details: in vivo
[8] = Cmax in human at 0.3 g, po; assay type: ADME; design: dose 0.3 g, route oral; details: in vivo
[9] = Toxicity in human assessed as CNS effect by measuring alteration in mentation
[10] = Toxicity in human assessed as arthralgia effect
Bacteroides fragilis = test: Antibacterial activity against Bacteroides fragilis by agar diffusion method; assay type: functional
Clostridium perfringens = test: microbe, parasite or virus in culture
[11] = Protein binding in human at 0.4 g, po bid; assay type: ADME, organism-based; details: in vivo, read-out: PB (converted)
[12] = Cmax in human at 0.4 g, po bid; assay type: ADME, organism-based; design: dose 0.4 g, route oral; details: in vivo
[13] = AUC in human at 0.4 g, po bid; assay type: ADME, organism-based; details: in vivo
[14] = Half life in human at 0.4 g, po bid; assay type: ADME, organism-based; details: in vivo
[15] = Cmax in human at 0.4 g, po by HPLC analysis; assay type: ADME, organism-based; design: dose 0.4 g, route oral; details: in vivo
[16] = AUC in human at 0.4 g, po by HPLC analysis; assay type: ADME, organism-based; details: in vivo
[17] = Protein binding in human at 0.32 g, po; assay type: ADME; details: in vivo, read-out: PB (converted)
[18] = Half life in human at 0.32 g, po; assay type: ADME; details: in vivo
[19] = Cmax in human at 0.32 g, po; assay type: ADME; design: dose 0.32 g, route oral; details: in vivo
[20] = AUC in human at 0.32 g, po; assay type: ADME; details: in vivo
[21] = Half life in human at 0.6 g, po; assay type: ADME; details: in vivo
[22] = AUC in human at 0.6 g, po; assay type: ADME; details: in vivo
[23] = Cmax in human at 0.6 g, po; assay type: ADME; design: dose 0.6 g, route oral; details: in vivo
[24] = Protein binding in human at 0.6 g, po; assay type: ADME; details: in vivo, read-out: PB (converted)

Compound	MIC90 (Streptococcus pyogenes) [µg/mL]	MIC90 (Staphylococcus aureus) [µg/mL]	MIC90 (Pseudomonas aeruginosa) [µg/mL]	MIC90 (Escherichia coli) [µg/mL]	MIC90 (Enterococcus) [µg/mL]	MIC90 (Streptococcus pneumoniae) [µg/mL]	MIC90 (Klebsiella) [µg/mL]	MIC90 (Haemophilus influenzae) [µg/mL]	MIC90 (Bacteroides fragilis) [µg/mL]	MIC90 (Clostridium perfringens) [µg/mL]	further results
CCn1cc(C(=O)O)c(=O)c2cc(F)c(N3CCNC(C)C3)c(F)c21 (stereo unspecified) [LOMEFLOXACIN]	4 (≈ 11.4 µM)	2 (≈ 5.69 µM)	2 (≈ 5.69 µM)	0.06 (≈ 0.171 µM)	4 (≈ 11.4 µM)	4 (≈ 11.4 µM)	0.25 (≈ 0.712 µM)	0.06 (≈ 0.171 µM)	–	–	Cmax [1]: 2800 ng/mL; fraction unbound [2]: 0.9; AUC [3]: 26000 ng·h/mL; half-life [4]: 8 h
N[C@@H]1[C@H]2CN(c3nc4c(cc3F)c(=O)c(C(=O)O)cn4-c3ccc(F)cc3F)C[C@@H]12 [TROVAFLOXACIN]	–	0.03 (≈ 0.0721 µM)	1 (≈ 2.4 µM)	0.06 (≈ 0.144 µM)	1 (≈ 2.4 µM)	0.12 (≈ 0.288 µM)	–	0.01 (≈ 0.024 µM)	–	–	Activity [5]: 2 to 11%; Activity [6]: 12 to 16%; AUC [7]: 40000 ng·h/mL; Cmax [8]: 2500 ng/mL
C[C@H]1COc2c(N3CCN(C)CC3)c(F)cc3c(=O)c(C(=O)O)cn1c23.C[C@H]1COc2c(N3CCN(C)CC3)c(F)cc3c(=O)c(C(=O)O)cn1c23.O [LEVOFLOXACIN]	–	–	–	–	–	–	–	–	–	–	Activity [9]: 0.026%; Activity [10]: 0.5 to 2%
COc1c(N2CCNC(C)C2)c(F)cc2c(=O)c(C(=O)O)cn(C3CC3)c12 (stereo unspecified) [GATIFLOXACIN]	0.25 (≈ 0.666 µM)	0.25 (≈ 0.666 µM)	4 (≈ 10.7 µM)	0.06 (≈ 0.16 µM)	1 (≈ 2.66 µM)	0.25 (≈ 0.666 µM)	0.25 (≈ 0.666 µM)	0.03 (≈ 0.0799 µM)	1 (≈ 2.66 µM)	0.5 (≈ 1.33 µM)	Cmax [1]: 3800 ng/mL; fraction unbound [2]: 0.8; AUC [3]: 33000 ng·h/mL; half-life [4]: 12 h
CC1COc2c(N3CCN(C)CC3)c(F)cc3c(=O)c(C(=O)O)cn1c23 (stereo unspecified) [OFLOXACIN]	2 (≈ 5.53 µM)	0.5 (≈ 1.38 µM)	4 (≈ 11.1 µM)	0.12 (≈ 0.332 µM)	2 (≈ 5.53 µM)	2 (≈ 5.53 µM)	0.5 (≈ 1.38 µM)	0.03 (≈ 0.083 µM)	16 (≈ 44.3 µM)	1 (≈ 2.77 µM)	fraction unbound [11]: 0.6; Cmax [12]: 4800 ng/mL; AUC [13]: 64000 ng·h/mL; half-life [14]: 6 h
COc1c(N2C[C@@H]3CCCN[C@@H]3C2)c(F)cc2c(=O)c(C(=O)O)cn(C3CC3)c12 [MOXIFLOXACIN]	–	0.06 (≈ 0.149 µM)	8 (≈ 19.9 µM)	0.06 (≈ 0.149 µM)	2 (≈ 4.98 µM)	–	0.12 (≈ 0.299 µM)	0.06 (≈ 0.149 µM)	–	–	Cmax [15]: 3100 ng/mL; AUC [16]: 30000 ng·h/mL
CO/N=C1\CN(c2nc3c(cc2F)c(=O)c(C(=O)O)cn3C2CC2)CC1CN (stereo unspecified) [GEMIFLOXACIN]	0.06 (≈ 0.154 µM)	0.06 (≈ 0.154 µM)	4 (≈ 10.3 µM)	0.03 (≈ 0.077 µM)	4 (≈ 10.3 µM)	0.03 (≈ 0.077 µM)	0.25 (≈ 0.642 µM)	0.06 (≈ 0.154 µM)	–	–	fraction unbound [17]: 0.4; half-life [18]: 7 h; Cmax [19]: 1000 ng/mL; AUC [20]: 9000 ng·h/mL
CCn1cc(C(=O)O)c(=O)c2cc(F)c(N3CCNCC3)nc21 [ENOXACIN]	> 64	2 (≈ 6.24 µM)	> 64	0.25 (≈ 0.78 µM)	8 (≈ 25 µM)	64 (≈ 200 µM)	2 (≈ 6.24 µM)	0.12 (≈ 0.375 µM)	> 64	> 64	half-life [21]: 2 h; AUC [22]: 29000 ng·h/mL; Cmax [23]: 3700 ng/mL; fraction unbound [24]: 0.4
